In ChEMBL document CHEMBL1201862, “PubChem BioAssay data set” (2004):
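The compound was tested at five concentrations on cells cultured in 96-well plates, with a 48-hour exposure period. GI50 = concentration required for 50% inhibition of growth.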 Calls of active or inactive are those of the source. Rule as the data show it: active = GI50 up to about 1.1 µM and inactive = higher.

What was measured:
Assay in all cases: NCI anticancer screen, dose series, 48 h
OVCAR-8 = system: OVCAR-8
RXF 393 = system: RXF 393
LOX IMVI = system: LOX IMVI
MDA-MB-435 = system: MDA-MB-435
OVCAR-3 = system: OVCAR-3
SNB-19 = system: SNB-19
NCI-H226 = system: NCI-H226
PC-3 = system: PC-3
A498 = system: A498
SK-MEL-2 = system: SK-MEL-2
MCF7 = system: MCF7
SF-295 = system: SF-295
MDA-N = system: MDA-N
U-251 = system: U-251
HT-29 = system: HT-29
T47D = system: T47D
SW-620 = system: SW-620

Measured: GI50

CC(C)(C)OC(=O)NNCC(O)COc1ccccc1 (stereo not given)
inactive: OVCAR-8 > 100 µM | RXF 393 > 100 µM | LOX IMVI > 100 µM | MDA-MB-435 > 100 µM | OVCAR-3 > 100 µM | SNB-19 > 100 µM | NCI-H226 > 100 µM | PC-3 > 100 µM | A498 > 100 µM | SK-MEL-2 > 100 µM | MCF7 > 100 µM | SF-295 > 100 µM | MDA-N > 100 µM | U-251 > 100 µM | HT-29 > 100 µM | T47D > 100 µM | SW-620 > 100 µM

O=c1cc(N2CCCC2)[nH]c(=O)n1-c1ccc(Cl)cc1
inactive: OVCAR-8 > 100 µM | RXF 393 > 100 µM | LOX IMVI > 100 µM | MDA-MB-435 > 100 µM | OVCAR-3 > 100 µM | SNB-19 > 100 µM | NCI-H226 > 100 µM | PC-3 > 100 µM | A498 > 100 µM | SK-MEL-2 > 100 µM | MCF7 > 100 µM | SF-295 > 100 µM | MDA-N > 100 µM | U-251 > 100 µM | HT-29 > 100 µM | T47D > 100 µM | SW-620 > 100 µM

CCCCCNc1nonc1N
inactive: OVCAR-8 > 100 µM | RXF 393 > 100 µM | LOX IMVI > 100 µM | MDA-MB-435 > 100 µM | OVCAR-3 > 100 µM | SNB-19 > 100 µM | NCI-H226 > 100 µM | PC-3 > 100 µM | A498 > 84.9 µM | SK-MEL-2 > 100 µM | MCF7 > 100 µM | SF-295 > 100 µM | MDA-N > 100 µM | U-251 > 100 µM | HT-29 > 100 µM | T47D > 100 µM | SW-620 > 100 µM

Cc1ccc2nc(N/N=C/c3sccc3C)cc(C)c2c1
inactive: OVCAR-8 > 100 µM | RXF 393 61.8 µM | LOX IMVI > 100 µM | MDA-MB-435 > 100 µM | OVCAR-3 > 100 µM | SNB-19 48.2 µM | NCI-H226 > 100 µM | PC-3 35 µM | A498 > 100 µM | SK-MEL-2 > 100 µM | MCF7 25.3 µM | MDA-N > 100 µM | U-251 92.7 µM | HT-29 5.48 µM | T47D > 100 µM | SW-620 > 100 µM

O=C(/C=C/c1ccccc1)CCN1CCCCC1
inactive: OVCAR-8 18.5 µM | RXF 393 24.2 µM | LOX IMVI 17.5 µM | MDA-MB-435 28.2 µM | OVCAR-3 31.2 µM | SNB-19 > 100 µM | NCI-H226 > 100 µM | PC-3 52.7 µM | A498 39.2 µM | SK-MEL-2 > 100 µM | MCF7 27.4 µM | SF-295 99.5 µM | MDA-N 24.9 µM | U-251 23.6 µM | HT-29 19.7 µM | T47D 35.5 µM | SW-620 18.8 µM

COC/C=C\[C@]1(O)CCCC[C@@H]1CC(OC)OC
inactive: OVCAR-8 > 100 µM | RXF 393 > 100 µM | LOX IMVI > 100 µM | MDA-MB-435 > 100 µM | OVCAR-3 > 100 µM | SNB-19 > 100 µM | NCI-H226 > 100 µM | PC-3 > 100 µM | A498 > 100 µM | SK-MEL-2 > 100 µM | MCF7 > 100 µM | SF-295 > 100 µM | MDA-N > 100 µM | U-251 > 100 µM | HT-29 > 100 µM | T47D > 100 µM | SW-620 > 100 µM

COc1c(-c2ccc(F)cc2)oc2cc(O)cc(O)c2c1=O
inactive: OVCAR-8 28.7 µM | LOX IMVI 21.8 µM | MDA-MB-435 32.1 µM | OVCAR-3 34.1 µM | SNB-19 23.9 µM | PC-3 34 µM | A498 47.6 µM | SK-MEL-2 23.3 µM | MCF7 33.7 µM | SF-295 26.1 µM | MDA-N 26.2 µM | U-251 30.5 µM | HT-29 22.7 µM | T47D 18.8 µM | SW-620 43 µM

O=C(O)C1C2CCC(O2)C1C(=O)Nc1cccc2cccnc12 (stereo not given)
inactive: RXF 393 > 100 µM | LOX IMVI > 100 µM | MDA-MB-435 > 100 µM | OVCAR-3 > 100 µM | SNB-19 > 100 µM | PC-3 > 100 µM | A498 > 100 µM | SK-MEL-2 > 100 µM | MCF7 > 100 µM | SF-295 > 100 µM | MDA-N > 100 µM | U-251 > 100 µM | HT-29 > 100 µM | T47D > 100 µM | SW-620 > 100 µM

COc1cc(C2SC(=N)Nc3c2c(C)nn3C(=O)Cc2ccccc2)cc(OC)c1OC (stereo not given)
inactive: OVCAR-8 > 100 µM | LOX IMVI > 100 µM | MDA-MB-435 > 100 µM | SNB-19 > 100 µM | NCI-H226 > 100 µM | PC-3 > 100 µM | A498 > 100 µM | MCF7 > 100 µM | SF-295 > 100 µM | MDA-N > 100 µM | HT-29 > 100 µM | T47D > 100 µM | SW-620 > 100 µM

CCCCCCCCCCCCCCCCCCNc1ccn(C2OC(CO)C(OP(=O)(O)OCC(O)COP(=O)(O)OCC3OC(n4cc(F)c(NCCCCCCCCCCCCCCCCCC)nc4=O)CC3O)C2O)c(=O)n1 (stereo not given)
inactive: OVCAR-8 > 50 µM | LOX IMVI > 50 µM | MDA-MB-435 > 50 µM | OVCAR-3 > 50 µM | SNB-19 > 50 µM | NCI-H226 > 50 µM | PC-3 > 50 µM | A498 > 50 µM | SK-MEL-2 > 50 µM | MCF7 > 50 µM | SF-295 > 50 µM | MDA-N > 50 µM | U-251 > 50 µM | HT-29 > 50 µM | T47D > 50 µM | SW-620 > 50 µM

CC(C)N(C(=O)C12C3(C(=O)C(C)(C)C)C4C5(C#N)C3C1(C(=O)C(C)(C)C)C5C42C(=O)C(C)(C)C)C(C)C (stereo not given)
inactive: OVCAR-8 > 100 µM | RXF 393 > 100 µM | LOX IMVI > 100 µM | MDA-MB-435 > 100 µM | OVCAR-3 > 100 µM | SNB-19 > 100 µM | PC-3 > 100 µM | A498 > 100 µM | SK-MEL-2 > 100 µM | MCF7 > 100 µM | SF-295 > 100 µM | MDA-N > 100 µM | U-251 > 100 µM | HT-29 > 100 µM | T47D > 100 µM | SW-620 > 100 µM

Fc1ccc(C(OCCN2CC3CC2CN3CCCc2ccccc2)c2ccc(F)cc2)cc1 (stereo not given)
inactive: OVCAR-8 3.23 µM | LOX IMVI 5.87 µM | MDA-MB-435 5.3 µM | OVCAR-3 9.98 µM | SNB-19 13.3 µM | NCI-H226 7.23 µM | PC-3 5.98 µM | A498 4.98 µM | SK-MEL-2 9.95 µM | MCF7 6.08 µM | SF-295 6.19 µM | MDA-N 6.27 µM | U-251 6.71 µM | HT-29 3.85 µM | T47D 2.07 µM | SW-620 6.53 µM

COc1ccc(/N=N/C(=N/NC(=O)c2ccccc2)c2ccc(N(CCC#N)CCC#N)cc2C)cc1
inactive: OVCAR-8 51.8 µM | RXF 393 34.8 µM | MDA-MB-435 5.43 µM | OVCAR-3 17.7 µM | SNB-19 50.9 µM | NCI-H226 43.8 µM | PC-3 19.1 µM | A498 25.6 µM | SK-MEL-2 88.5 µM | MCF7 18.5 µM | SF-295 21.5 µM | MDA-N 4.7 µM | U-251 60.5 µM | HT-29 17.9 µM | T47D 53.7 µM

CC1=NN(c2cccc(Cl)c2)C2(SCC(=O)N2c2nc3ccccc3s2)/C1=C\c1ccc(N(C)C)cc1 (stereo not given)
inactive: OVCAR-8 58.9 µM | RXF 393 21.8 µM | LOX IMVI > 100 µM | MDA-MB-435 > 100 µM | OVCAR-3 48.5 µM | NCI-H226 76 µM | PC-3 > 100 µM | A498 27.9 µM | SK-MEL-2 23.9 µM | MCF7 38.7 µM | SF-295 42.2 µM | MDA-N > 100 µM | U-251 35.7 µM | HT-29 > 100 µM | T47D 34.8 µM | SW-620 > 100 µM

COC(=O)C1(Cc2ccccc2)Cc2ccccc2C1O (stereo not given)
inactive: OVCAR-8 > 100 µM | RXF 393 50.2 µM | LOX IMVI > 100 µM | MDA-MB-435 > 100 µM | OVCAR-3 > 100 µM | NCI-H226 > 100 µM | PC-3 > 100 µM | A498 > 100 µM | MCF7 > 100 µM | SF-295 > 100 µM | MDA-N > 100 µM | U-251 > 100 µM | HT-29 > 100 µM | T47D 43.3 µM | SW-620 > 100 µM

CC(C)(C)OC(=O)NCCNCCNc1ccccc1
inactive: OVCAR-8 > 100 µM | RXF 393 > 100 µM | LOX IMVI > 100 µM | MDA-MB-435 > 100 µM | OVCAR-3 > 100 µM | SNB-19 > 100 µM | NCI-H226 > 100 µM | PC-3 > 100 µM | SK-MEL-2 > 100 µM | MCF7 > 100 µM | SF-295 > 100 µM | MDA-N 97.5 µM | U-251 > 100 µM | HT-29 > 100 µM | T47D 85.5 µM | SW-620 > 100 µM

Cc1ccccc1C(O)(c1nccn1C)c1nccn1C
inactive: OVCAR-8 > 100 µM | RXF 393 > 100 µM | MDA-MB-435 > 100 µM | OVCAR-3 > 100 µM | SNB-19 > 100 µM | NCI-H226 > 100 µM | PC-3 > 100 µM | A498 > 100 µM | SK-MEL-2 > 100 µM | MCF7 > 100 µM | SF-295 > 100 µM | MDA-N > 100 µM | U-251 > 100 µM | HT-29 > 100 µM | T47D > 100 µM | SW-620 > 100 µM
